Measurements as given in ChEMBL document CHEMBL3045976, “Synthesis of biphenyl derivatives as ACE and -amylase inhibitors” (Med Chem Res, 2013).
Calls of active or inactive are those of the source. The rule behind the calls is not given here.

How the values were obtained:
[1] = target: Alpha amylase (Homo sapiens) (UniProt P0DUB6); experiment: Inhibition of alpha-amylase (unknown origin) using starch as substrate at 100 to 500 ug incubated for 10 min prior to substrate addition measured after 15 min by DNSA method relative to control
Alpha amylase (Homo sapiens), sequence (P0DUB6 whole entry, looked up): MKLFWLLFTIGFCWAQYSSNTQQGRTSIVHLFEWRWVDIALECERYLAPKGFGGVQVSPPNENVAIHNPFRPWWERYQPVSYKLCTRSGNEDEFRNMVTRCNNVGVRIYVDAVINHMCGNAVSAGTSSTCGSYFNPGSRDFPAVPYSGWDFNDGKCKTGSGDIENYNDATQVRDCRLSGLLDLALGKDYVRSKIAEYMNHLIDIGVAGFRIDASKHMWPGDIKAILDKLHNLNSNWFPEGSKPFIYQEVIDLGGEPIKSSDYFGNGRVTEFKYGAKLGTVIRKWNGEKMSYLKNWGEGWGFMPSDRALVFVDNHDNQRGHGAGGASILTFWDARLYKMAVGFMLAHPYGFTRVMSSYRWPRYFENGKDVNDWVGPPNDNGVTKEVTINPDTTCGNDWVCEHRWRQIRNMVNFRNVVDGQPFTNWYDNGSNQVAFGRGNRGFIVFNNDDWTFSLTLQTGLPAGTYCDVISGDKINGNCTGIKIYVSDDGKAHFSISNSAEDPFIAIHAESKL

[2] = target: Angiotensin-converting enzyme (Homo sapiens) (UniProt P12821); experiment: Inhibition of ACE (unknown origin) using Hippuryl-His-Leu as substrate at 1 to 10 ug incubated for 10 min prior to substrate addition measured after 45 min by spectrophotometric analysis relative to control
Angiotensin-converting enzyme (Homo sapiens), sequence (P12821 whole entry): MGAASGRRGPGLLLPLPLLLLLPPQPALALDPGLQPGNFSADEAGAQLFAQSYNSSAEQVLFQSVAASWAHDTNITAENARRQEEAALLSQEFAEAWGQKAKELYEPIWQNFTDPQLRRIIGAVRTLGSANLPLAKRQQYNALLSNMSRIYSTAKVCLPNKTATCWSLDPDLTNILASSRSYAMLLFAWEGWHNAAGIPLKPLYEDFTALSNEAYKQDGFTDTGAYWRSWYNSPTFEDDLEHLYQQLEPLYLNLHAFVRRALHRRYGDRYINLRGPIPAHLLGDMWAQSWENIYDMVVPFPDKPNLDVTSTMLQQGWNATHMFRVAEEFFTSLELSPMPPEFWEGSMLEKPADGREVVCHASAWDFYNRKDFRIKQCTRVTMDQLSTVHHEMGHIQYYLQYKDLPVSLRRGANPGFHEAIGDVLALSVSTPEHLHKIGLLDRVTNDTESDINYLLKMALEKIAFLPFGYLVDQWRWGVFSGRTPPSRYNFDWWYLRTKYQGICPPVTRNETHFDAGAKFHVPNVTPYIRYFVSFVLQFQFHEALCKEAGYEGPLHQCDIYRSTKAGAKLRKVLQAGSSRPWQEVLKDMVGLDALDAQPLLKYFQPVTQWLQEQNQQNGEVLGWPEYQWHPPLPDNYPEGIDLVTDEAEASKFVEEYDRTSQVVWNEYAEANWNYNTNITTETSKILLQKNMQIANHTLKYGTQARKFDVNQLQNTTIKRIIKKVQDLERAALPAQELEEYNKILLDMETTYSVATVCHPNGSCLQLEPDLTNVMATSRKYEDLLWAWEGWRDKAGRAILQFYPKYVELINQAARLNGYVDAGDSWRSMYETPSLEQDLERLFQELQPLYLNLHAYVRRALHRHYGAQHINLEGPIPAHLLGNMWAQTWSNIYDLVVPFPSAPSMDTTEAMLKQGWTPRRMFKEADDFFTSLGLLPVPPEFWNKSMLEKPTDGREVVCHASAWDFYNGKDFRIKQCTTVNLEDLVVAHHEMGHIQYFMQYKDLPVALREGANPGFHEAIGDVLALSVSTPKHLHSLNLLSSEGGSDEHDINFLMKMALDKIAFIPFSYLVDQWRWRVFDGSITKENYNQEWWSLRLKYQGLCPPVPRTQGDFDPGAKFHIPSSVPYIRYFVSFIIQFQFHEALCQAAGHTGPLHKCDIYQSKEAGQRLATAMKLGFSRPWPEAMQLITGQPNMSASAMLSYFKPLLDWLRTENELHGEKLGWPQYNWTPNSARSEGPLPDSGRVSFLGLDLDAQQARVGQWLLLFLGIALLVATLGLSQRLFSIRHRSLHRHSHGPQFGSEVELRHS

[3] = target: Angiotensin-converting enzyme (Homo sapiens) (UniProt P12821); experiment: Inhibition of ACE (unknown origin) using Hippuryl-His-Leu as substrate at 10 ug incubated for 10 min prior to substrate addition measured after 45 min by spectrophotometric analysis relative to control

inhibition [1] | inhibition [2] | inhibition [3] [%] | SMILES
inactive | inactive |  | Cc1nnc(-c2ccccc2-c2ccc(CN3C(=O)CSC3=O)cc2)o1
 |  | 83 | c1ccc(-c2nnn[nH]2)c(-c2ccc(CN3CCNCC3)cc2)c1
 | inactive |  | O=C1CSC(=O)N1Cc1ccc(-c2ccccc2-c2nnn[nH]2)cc1
 | inactive |  | OCCOCCN1CCN(Cc2ccc(-c3ccccc3-c3nnn[nH]3)cc2)CC1
 |  | 92 | CN1CCN(Cc2ccc(-c3ccccc3-c3nnn[nH]3)cc2)CC1
inactive | inactive |  | Cc1nnc(-c2ccccc2-c2ccc(CN3CCC(C(=O)O)CC3)cc2)o1
inactive | inactive |  | c1ccc(-c2nnn[nH]2)c(-c2ccc(CN3CCOCC3)cc2)c1
inactive | inactive |  | Cc1nnc(-c2ccccc2-c2ccc(CN3CCOCC3)cc2)o1
inactive | inactive |  | Cc1nnc(-c2ccccc2-c2ccc(Cn3cncn3)cc2)o1
inactive | inactive |  | Cc1nnc(-c2ccccc2-c2ccc(CN3CCNCC3)cc2)o1
inactive | inactive |  | Cc1nnc(-c2ccccc2-c2ccc(CN3CCN(CCOCCO)CC3)cc2)o1
inactive | inactive |  | O=C(O)C1CCN(Cc2ccc(-c3ccccc3-c3nnn[nH]3)cc2)CC1
inactive | inactive |  | Cc1nnc(-c2ccccc2-c2ccc(Cn3ccnc3)cc2)o1
 |  | 80 | c1ccc(-c2nnn[nH]2)c(-c2ccc(Cn3ccnc3)cc2)c1
 |  | 80 | c1ccc(-c2nnn[nH]2)c(-c2ccc(Cn3cncn3)cc2)c1
inactive | inactive |  | Cc1nnc(-c2ccccc2-c2ccc(CN3CCN(C)CC3)cc2)o1
